Experimental data taken from patent publication EP4549150A1, “RESIN COMPOSITION FOR THREE-DIMENSIONAL PRINTING” (Cubicure GmbH, priority 2023, dated 2025).
Marks after values point to notes of the source that are not given here.

What was measured:
Format in all cases: physicochemical
[1] = Photo-DSC photo-reactivity study; settings: 50°C, 365 nm, 1% w/w TPO-L; for t95%: time when 95% of the total heat of polymerization has evolved; for tmax: time when maximum heat evolution was reached
Procedure: Photo-DSC (differential scanning calorimetry) studies were performed using a Netzsch DSC 204 F1 containing an autosampler and coupled to an intracooler IC85 cooling device. The system was connected to an Omnicure LX500 controller with a 365 nm LED and the power intensity was set on the sample at 17 mW cm^-2 (measured using a Thorlabs SMC100 powermeter and the corresponding S310C thermal power head). The test samples were mixed in a vortex mixer for 3 minutes with 1% w/w of TPO-L (a commercially available photoinitiator) and then […] were transferred to an aluminum crucible without lid. All experiments were conducted under Nitrogen atmosphere (flow = 20 mL/min) at 50°C and the samples were irradiated for 5 minutes. Triplicate DSC measurements were performed for each example. The measured heat of polymerization (ΔH) was calculated by integrating the area under the curve from 0 to 200 s.
Here, tmax is the time when maximum heat evolution was reached and t95% corresponds to the point when 95% of the total heat of polymerization has evolved (0 s corresponds to the moment when light is triggered). The double bound conversion (DBC) was calculated from the experimentally obtained heat of polymerization and the theoretical polymerization enthalpy indicated in the literature (56 kJ mol^-1 for methacrylates).

[2] = Viscosity by rheology (temperature ramp, cone-plate rheometer); settings: shear rate 60 s^-1
Procedure: Viscosity is another crucial parameter on the development of a reactive diluent. To obtain an effective reactive diluent, monomers providing a low viscosity need to be obtained. The referred viscosity is preferably between 5 and 100 mPa.s, more preferably between 5 and 50 mPa.s, and even more preferably 5 and 20 mPa.s. The presented viscosities refer to the process temperature which can be between 30-150°C. The viscosity was determined via rheology. Rheology measurements were performed using an Anton Paar MCR 102 rheometer, equipped with a P-PTD 200/GL Peltier glass plate and an H-PTD200 heating hood. For measuring the rheological properties, a temperature ramp experiment was performed from 25-100°C with a heating rate of 0.5°C min^-1, using a CP25 measurement system (cone plate with a 2° angle and 25 mm diameter) at a gap distance of 0.1 mm and with a shear rate of 60 s^-1.

[3] = Volatility: weight loss after 24 hours in oven; settings: for weight loss relative to example 1: ratio to weight loss of example 1
Procedure: Volatility can be assessed from the weight lost after 24 hours, and is preferably below 10%, more preferably below 5% and even more preferable below 1% at the process temperature (between 30 and 150°C). For the determination of the volatility of the compounds 25 mL flasks (Ø 30 mm) with approximately 2 grams of the test compound were placed in a Memmert oven at 50 °C and 80°C for 24 hours and the volatility was determined as the weight loss in percent (w/w).

[4] = Dynamic Mechanical Analysis (DMA) of printed specimens; settings: increasing the percentage of reactive diluent from 10 to 30% in X-851-1066
Procedure: For the (thermo)mechanical tests and water uptake tests, Example 1 or Reference 2 were mixed with two commercially available oligomers, namely Ebecryl 8811 (Allnex) a difunctional aliphatic urethane acrylate and BR-952 (Bomar) a difunctional aliphatic urethane methacrylate in different ratios.
For the sample preparation a speedmixer (DAC 150.1 FVZ-K, Hauschild) was used. 70 g of the total formulation was mixed at 3000 rpm for 10 minutes. After that the resin composition was degassed until no air bubbles were released.
Test specimens were printed on a Cubicure Caligma 200 DLP 405 nm. Light Pulse Duration was set to 6000, corresponding to 1.5 s total exposure time, and print speed to 20 mm/s. Processing temperature was 35°C, due to the high volatility of Reference 2.
Dynamic Mechanical Analysis (DMA) of the printed specimens measuring 50x5x1 mm^3 was performed using a DMA8000 Dynamic Mechanical Analyzer from PerkinElmer. The measurements were performed using the tension mode, from 30-160 °C with a heating rate of 2°C min^-1 and frequency of 1 Hz. In these experiments the evolution of the storage modulus G' with increasing temperature was observed and the Tg was determined (maximum value for tan δ).

Compound	t95% [1] [s]	tmax [1] [s]	Viscosity ([2]; 25°C (room temperature)) [mPa.s]	Viscosity ([2]; 40°C) [mPa.s]	Viscosity ([2]; 50°C) [mPa.s]	Viscosity ([2]; 70°C) [mPa.s]	Viscosity ([2]; 90°C) [mPa.s]	Viscosity ([2]; 100°C) [mPa.s]	Volatility [weight loss %] ([3]; 50°C) [%]	Volatility [weight loss %] ([3]; 80°C)	decrease of Tg of the photopolymer [4] [%]	Viscosity ([2]; 25°C (room temperature), listed as Example 4) [mPa.s]	Viscosity ([2]; 25°C (room temperature), listed as Example 5) [mPa.s]	Viscosity ([2]; 40°C, listed as example 5) [mPa.s]	weight loss relative to example 1 ([3]; 80°C)
C=C(C)C(=O)OC1CCCCC1O (stereo not drawn) [Ex1, 2-hydroxycyclohexyl methacrylate]	43	14	53	26	16	7	4	3	5	20%	4				
C=C(C)C(=O)OC1CCCCC1OC(=O)C1CCCCC1 (stereo not drawn) [Ex2, 2-(cyclohexylcarbonyloxy)cyclohexyl methacrylate]	66	17	27	17	12	7	4	4	1	14%					
C=C(C)C(=O)OC1CCCCC1OC(=O)C(C)(C)C (stereo not drawn) [Ex3, 2-(isopropenylcarbonyloxy)cyclohexyl 2,2-dimethylpropionate]	87	51	13	9	6	4	2	2	2.7	21%					
C=C(C)C(=O)OC1CCCCC1OC(=O)Cc1ccccc1 (stereo not drawn) [Ex4, 2-(benzylcarbonyloxy)cyclohexyl methacrylate]	174	26	110	53	31	13	8	7	0.09	17%		174			
C=C(C)C(=O)OC1CCCCC1OC(=O)C(CC)CCCC (stereo not drawn) [Ex5, 2-(isopropenylcarbonyloxy)cyclohexyl 2-ethylhexanoate]			174	101	65	34	20	19	0.6	1.9** %			110	53	
C=C(C)C(=O)OCCO [Ref2, 2-hydroxyethylmethacrylate, reference compound]	65	43	6	4	3	2	1	1	34	89%	13				more than 4 times
Isobornyl methacrylate [Ref1, reference compound]	67	36	8	6	4	3	2	2	12	65%					3 times
